What was measured:
[1] = cn = amount concentration of the nth substance listed, in mol/dm3; details: 298.15 K, 101 kPa, Liquid, Alternating current cell with electrodes
[2] = Liquid; Distillation
[3] = mn = molality of the nth substance listed, in mol/kg; details: 298.15 K, 101 kPa, Liquid, Alternating current cell with electrodes

CCCC[n+]1ccccc1.[O-][Cl+3]([O-])([O-])[O-] [1-butylpyridinium perchlorate] + CC(=O)CC(C)C
[1]
Details	molar conductivity [S·m2/mol]
c1 = 0.0001223	0.00753
c1 = 0.0001384	0.00709
c1 = 0.0001791	0.00669
c1 = 0.0002332	0.00627
c1 = 0.0003126	0.00579
c1 = 0.0004224	0.00533
c1 = 0.0005585	0.0049
c1 = 0.0007544	0.00446
c1 = 0.001004	0.00408
c1 = 0.001345	0.00369
c1 = 0.001798	0.00335
c1 = 0.002419	0.00303
c1 = 0.00324	0.00274
c1 = 0.004348	0.00248
c1 = 0.005787	0.00225

CCCCCCCCCCCCCCCC[n+]1ccccc1.[O-][Cl+3]([O-])([O-])[O-] [1-hexadecylpyridinium perchlorate] + CC(=O)CC(C)C
[1]
Details	molar conductivity [S·m2/mol]
c1 = 9.238e-05	0.00688
c1 = 0.0001329	0.0064
c1 = 0.0001691	0.00608
c1 = 0.0002261	0.00565
c1 = 0.0002954	0.00527
c1 = 0.0004138	0.0048
c1 = 0.0005388	0.00444
c1 = 0.0007214	0.00406
c1 = 0.0009671	0.0037
c1 = 0.001303	0.00335
c1 = 0.001719	0.00306
c1 = 0.002318	0.00277
c1 = 0.00312	0.0025
c1 = 0.00417	0.00226
c1 = 0.005569	0.00205

CC(=O)CC(C)C [4-methylpentan-2-one]
Details	Normal boiling temperature [°C]
[2]	114.20

CCCCCC[N+](CC)(CC)CC.[O-][Cl+3]([O-])([O-])[O-] [N,N,N-triethyl-1-hexanaminium perchlorate] + CC(=O)CC(C)C
[1]
Details	molar conductivity [S·m2/mol]
c1 = 9.437e-05	0.00808
c1 = 0.0001362	0.00766
c1 = 0.0001739	0.00732
c1 = 0.0002195	0.00695
c1 = 0.0002862	0.00655
c1 = 0.0003746	0.00614
c1 = 0.0004856	0.00574
c1 = 0.0006345	0.00534
c1 = 0.000817	0.00498
c1 = 0.001056	0.00462
c1 = 0.001385	0.00426
c1 = 0.00181	0.00392
c1 = 0.002334	0.00362
c1 = 0.003049	0.00333
c1 = 0.003975	0.00307

CCCCCCC[N+](CCCCCCC)(CCCCCCC)CCCCCCC.[O-][Cl+3]([O-])([O-])[O-] [N,N,N-triheptylheptan-1-aminium perchlorate] + CC(=O)CC(C)C
[1]
Details	molar conductivity [S·m2/mol]
c1 = 7.179e-05	0.00765
c1 = 0.0001036	0.00729
c1 = 0.0001318	0.00704
c1 = 0.0001594	0.00683
c1 = 0.0002244	0.00639
c1 = 0.0002974	0.00603
c1 = 0.000405	0.00563
c1 = 0.0005438	0.00525
c1 = 0.0007266	0.00487
c1 = 0.0009775	0.0045
c1 = 0.001306	0.00414
c1 = 0.001751	0.0038
c1 = 0.002355	0.00348
c1 = 0.003149	0.00319
c1 = 0.004208	0.00292

CCCCCCCCCCCCCCCC[N+](C)(C)C.[O-][Cl+3]([O-])([O-])[O-] [N,N,N-trimethyl-1-hexadecanaminium perchlorate] + CC(=O)CC(C)C
[1]
Details	molar conductivity [S·m2/mol]
c1 = 0.0001172	0.00637
c1 = 0.0001513	0.006
c1 = 0.0002096	0.00553
c1 = 0.0002636	0.00519
c1 = 0.0003584	0.00476
c1 = 0.0005071	0.00427
c1 = 0.0006588	0.00394
c1 = 0.0008706	0.00359
c1 = 0.001168	0.00326
c1 = 0.001547	0.00295
c1 = 0.002106	0.00265
c1 = 0.002797	0.0024
c1 = 0.00376	0.00216
c1 = 0.005012	0.00194
c1 = 0.006683	0.00175

CCCCCCCCCCCCCCCCCC[N+](C)(C)C.[O-][Cl+3]([O-])([O-])[O-] [N,N,N-trimethyl-1-octadecanaminium perchlorate] + CC(=O)CC(C)C
[1]
Details	molar conductivity [S·m2/mol]
c1 = 0.0001049	0.00634
c1 = 0.0001371	0.00601
c1 = 0.0001741	0.00568
c1 = 0.0002263	0.00531
c1 = 0.0002892	0.00497
c1 = 0.0003809	0.00458
c1 = 0.0004892	0.00425
c1 = 0.0006311	0.00392
c1 = 0.0008148	0.00361
c1 = 0.001062	0.0033
c1 = 0.001386	0.00302
c1 = 0.001802	0.00276
c1 = 0.002337	0.00251
c1 = 0.003032	0.00229

CCCC[N+](CCCC)(CCCC)CCCC.[O-][Cl+3]([O-])([O-])[O-] [tetrabutylammonium perchlorate] + CC(=O)CC(C)C
[1]
Details	molar conductivity [S·m2/mol]
c1 = 9.747e-05	0.00773
c1 = 0.0001341	0.00737
c1 = 0.0001902	0.00693
c1 = 0.0002367	0.00662
c1 = 0.0003186	0.00622
c1 = 0.0004325	0.00577
c1 = 0.0005781	0.00535
c1 = 0.0007683	0.00495
c1 = 0.001016	0.00457
c1 = 0.00138	0.00418
c1 = 0.001839	0.00383
c1 = 0.002457	0.00351
c1 = 0.003309	0.0032
c1 = 0.004418	0.00292
c1 = 0.005893	0.00267

CC[N+](CC)(CC)CC.[O-][Cl+3]([O-])([O-])[O-] [tetraethylammonium perchlorate] + CC(=O)CC(C)C
[1]
Details	molar conductivity [S·m2/mol]
c1 = 1.622e-05	0.00917
c1 = 2.705e-05	0.00898
c1 = 3.499e-05	0.00888
c1 = 4.526e-05	0.00874
c1 = 5.823e-05	0.00852
c1 = 7.469e-05	0.0083
c1 = 9.761e-05	0.00812

CCCCCC[N+](CCCCCC)(CCCCCC)CCCCCC.[O-][Cl+3]([O-])([O-])[O-] [tetrahexylammonium perchlorate] + CC(=O)CC(C)C
[1]
Details	molar conductivity [S·m2/mol]
c1 = 9.876e-05	0.00727
c1 = 0.0001295	0.00705
c1 = 0.0001762	0.00672
c1 = 0.0002207	0.00645
c1 = 0.0002798	0.00613
c1 = 0.0003687	0.00578
c1 = 0.0004788	0.00543
c1 = 0.0006209	0.00509
c1 = 0.0008088	0.00475
c1 = 0.001056	0.00441
c1 = 0.00138	0.00409
c1 = 0.001782	0.0038
c1 = 0.002321	0.00351
c1 = 0.003006	0.00324
c1 = 0.003917	0.00299

C[N+](C)(C)C.[O-][Cl+3]([O-])([O-])[O-] [tetramethylammonium perchlorate] + CC(=O)CC(C)C
[1]
Details	molar conductivity [S·m2/mol]
c1 = 9.338e-06	0.0113
c1 = 1.196e-05	0.0112
c1 = 1.53e-05	0.0111
c1 = 1.98e-05	0.0108
c1 = 2.582e-05	0.0105
c1 = 3.276e-05	0.0101
c1 = 4.292e-05	0.00975
c1 = 5.528e-05	0.00934
c1 = 7.008e-05	0.00894
c1 = 9.231e-05	0.00847

CCCCC[N+](CCCCC)(CCCCC)CCCCC.[O-][Cl+3]([O-])([O-])[O-] [tetrapentylammonium perchlorate] + CC(=O)CC(C)C
[3]
Details	molar conductivity [S·m2/mol]
m1 = 9.66e-05	0.00743
m1 = 0.0001207	0.00719
m1 = 0.0001685	0.0068
m1 = 0.0002146	0.00647
m1 = 0.0002922	0.00606
m1 = 0.0004004	0.00562
m1 = 0.0005296	0.00524
m1 = 0.0007017	0.00487
m1 = 0.0009021	0.00468
m1 = 0.001262	0.00413
m1 = 0.001674	0.0038
m1 = 0.002257	0.00347
m1 = 0.003014	0.00318
m1 = 0.004036	0.0029
m1 = 0.0054	0.00265

Source: the NIST ThermoML archive (doi:10.1021/je9008969)
